Values belong to the molecule of their own block, whether it stands above or below them. Activity calls are given as the source filed them. The calls are words filed in the database; no cut-off is given here.
Key:
[1] = target: T1, Mitogen-activated protein kinase kinase kinase 14 (Homo sapiens, UniProt Q99558); test: Inhibition of recombinant human N-terminal GST-tagged NIK (318 to 947 residues) expressed in baculovirus infected Sf9 cells using ultrapure ATP as substrate measured after 1 hr by ADP-glo assay
T1 sequence (Q99558 whole entry, the tested form may be a part): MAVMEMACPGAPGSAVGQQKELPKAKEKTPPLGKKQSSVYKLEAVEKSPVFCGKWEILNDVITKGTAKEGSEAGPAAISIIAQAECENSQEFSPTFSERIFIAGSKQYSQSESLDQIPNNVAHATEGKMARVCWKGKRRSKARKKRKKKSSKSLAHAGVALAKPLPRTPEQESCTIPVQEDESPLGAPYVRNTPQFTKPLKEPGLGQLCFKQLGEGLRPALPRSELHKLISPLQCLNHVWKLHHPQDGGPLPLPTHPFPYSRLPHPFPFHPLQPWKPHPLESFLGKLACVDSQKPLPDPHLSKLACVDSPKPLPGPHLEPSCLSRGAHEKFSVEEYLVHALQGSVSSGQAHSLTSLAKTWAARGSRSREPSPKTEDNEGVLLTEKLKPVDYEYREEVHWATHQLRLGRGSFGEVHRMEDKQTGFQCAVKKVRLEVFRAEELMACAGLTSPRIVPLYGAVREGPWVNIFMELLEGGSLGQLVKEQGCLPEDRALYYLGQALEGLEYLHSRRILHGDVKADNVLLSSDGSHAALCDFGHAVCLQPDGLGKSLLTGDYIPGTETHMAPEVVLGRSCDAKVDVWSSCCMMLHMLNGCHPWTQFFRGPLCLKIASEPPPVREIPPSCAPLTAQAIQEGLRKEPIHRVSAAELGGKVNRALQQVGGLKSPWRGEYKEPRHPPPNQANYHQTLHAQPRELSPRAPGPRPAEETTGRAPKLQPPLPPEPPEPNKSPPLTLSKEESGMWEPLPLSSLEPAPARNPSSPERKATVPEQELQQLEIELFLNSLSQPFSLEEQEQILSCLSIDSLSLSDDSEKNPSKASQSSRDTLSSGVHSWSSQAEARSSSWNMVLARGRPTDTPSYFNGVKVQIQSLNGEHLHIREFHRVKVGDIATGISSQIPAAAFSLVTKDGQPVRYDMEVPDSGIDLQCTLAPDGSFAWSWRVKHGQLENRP

[2] = Cmax in ICR mouse at 5 mg/kg, iv by LC-MS/MS analysis; format: ADME, organism-based; design: dose 5 mg/kg, route intravenous; details: in vivo
[3] = AUC (0 to t) in ICR mouse at 15 mg/kg, po by LC-MS/MS analysis; format: ADME, organism-based; details: in vivo
[4] = AUC (0 to t) in ICR mouse at 5 mg/kg, iv by LC-MS/MS analysis; format: ADME, organism-based; details: in vivo
[5] = Oral bioavailability in ICR mouse at 15 mg/kg by LC-MS/MS analysis; format: ADME, organism-based; details: in vivo
[6] = Apparent volume of distribution in ICR mouse at 5 mg/kg, iv by LC-MS/MS analysis; format: ADME, organism-based; details: in vivo, read-out: Vz
Mus musculus [7] = test: (§1) Antiinflammatory activity in CCl4-induced C57BL/6 mouse model of liver injury assessed as reduction in CXCL5 mRNA expression in liver at 40 mg/kg, po administered 30 mins prior to CCl4 addition followed by compound redosing at 3 hrs interval for 9 hrs and measured 12 hrs […] by SYBR staining based RT-qPCR analysis; format: functional, organism-based
[8] = target: Mitogen-activated protein kinase kinase kinase 14 (Mus musculus) (UniProt Q9WUL6); test: Inhibition of NIK in NIK adenovirus infected C57BL/6 mouse primary hepatocytes assessed as reduction in CCL2 mRNA expression measured after 16 hrs by SYBR staining based RT-qPCR analysis
Mitogen-activated protein kinase kinase kinase 14 (Mus musculus), sequence (Q9WUL6 whole entry): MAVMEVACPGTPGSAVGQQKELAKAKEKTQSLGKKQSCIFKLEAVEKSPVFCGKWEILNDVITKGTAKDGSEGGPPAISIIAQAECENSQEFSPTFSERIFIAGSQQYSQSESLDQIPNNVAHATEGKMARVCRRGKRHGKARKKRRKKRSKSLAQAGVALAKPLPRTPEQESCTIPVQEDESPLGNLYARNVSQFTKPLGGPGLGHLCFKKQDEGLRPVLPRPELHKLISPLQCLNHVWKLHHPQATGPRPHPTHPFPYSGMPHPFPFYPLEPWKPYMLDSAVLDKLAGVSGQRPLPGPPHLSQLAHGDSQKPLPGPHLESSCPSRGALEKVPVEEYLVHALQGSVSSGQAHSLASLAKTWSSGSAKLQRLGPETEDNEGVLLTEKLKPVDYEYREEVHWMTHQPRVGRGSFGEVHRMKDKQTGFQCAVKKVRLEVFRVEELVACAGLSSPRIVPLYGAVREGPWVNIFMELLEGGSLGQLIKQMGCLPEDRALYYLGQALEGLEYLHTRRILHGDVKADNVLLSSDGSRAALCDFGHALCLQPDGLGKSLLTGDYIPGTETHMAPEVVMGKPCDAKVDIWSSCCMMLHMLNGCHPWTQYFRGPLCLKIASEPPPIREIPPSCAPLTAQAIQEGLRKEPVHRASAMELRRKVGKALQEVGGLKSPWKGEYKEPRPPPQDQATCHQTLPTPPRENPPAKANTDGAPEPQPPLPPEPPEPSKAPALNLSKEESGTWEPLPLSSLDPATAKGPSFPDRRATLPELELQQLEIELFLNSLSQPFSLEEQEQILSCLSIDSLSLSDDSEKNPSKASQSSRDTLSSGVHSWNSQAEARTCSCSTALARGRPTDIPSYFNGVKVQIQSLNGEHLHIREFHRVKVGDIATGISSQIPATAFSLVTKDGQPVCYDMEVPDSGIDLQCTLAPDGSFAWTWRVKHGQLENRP

Mus musculus [9] = test: Antiinflammatory activity in CCl4-induced C57BL/6 mouse model of liver injury assessed as reduction in serum ALT level at 40 mg/kg, po administered 30 mins prior to CCl4 addition followed by compound redosing at 3 hrs interval for 9 hrs and measured 12 hrs […]; format: functional, organism-based
[10] = Tmax in ICR mouse at 5 mg/kg, iv by LC-MS/MS analysis; format: ADME, organism-based; details: in vivo
Mus musculus [11] = test: as §1, with “CCL5” for “CXCL5”; format: functional, organism-based
[12] = Half life in ICR mouse at 5 mg/kg, iv by LC-MS/MS analysis; format: ADME, organism-based; details: in vivo
[13] = Stability of the compound in pH 1 aqueous solution; format: physicochemical; details: buffer
[14] = target: Mitogen-activated protein kinase kinase kinase 14 (Mus musculus) (UniProt Q9WUL6); test: Inhibition of NIK in NIK adenovirus infected C57BL/6 mouse primary hepatocytes assessed as reduction in CXCL5 mRNA expression measured after 16 hrs by SYBR staining based RT-qPCR analysis
Mus musculus [15] = test: as §1, with “NOS2” for “CXCL5”; format: functional, organism-based
[16] = Cmax in ICR mouse at 15 mg/kg, po by LC-MS/MS analysis; format: ADME, organism-based; design: dose 15 mg/kg, route oral; details: in vivo
[17] = target: Mitogen-activated protein kinase kinase kinase 14 (Mus musculus) (UniProt Q9WUL6); test: Inhibition of NIK in NIK/p100 adenoviruses infected C57BL/6 mouse primary hepatocytes assessed as suppression of NIK-mediated proteolysis of p100 to p52 by measuring reduction in p52 level measured after 16 hrs by Western blot analysis
[18] = target: Mitogen-activated protein kinase kinase kinase 14 (Mus musculus) (UniProt Q9WUL6); test: Inhibition of NIK in NIK adenovirus infected C57BL/6 mouse primary hepatocytes assessed as reduction in CCL5 mRNA expression measured after 16 hrs by SYBR staining based RT-qPCR analysis
[19] = Clearance in ICR mouse at 5 mg/kg, iv by LC-MS/MS analysis; format: ADME, organism-based; details: in vivo
Mus musculus [20] = test: Antiinflammatory activity in CCl4-induced C57BL/6 mouse model of liver injury assessed as reduction in immune cell infiltration in liver at 40 mg/kg, po administered 30 mins prior to CCl4 addition followed by compound redosing at 3 hrs interval for 9 hrs and measured 12 hrs […] by F4/80/DAPI staining based immunofluorescence assay; format: functional, organism-based
[21] = target: Mitogen-activated protein kinase kinase kinase 14 (Mus musculus) (UniProt Q9WUL6); test: Inhibition of NIK in NIK adenovirus infected C57BL/6 mouse primary hepatocytes assessed as reduction in NOS2 mRNA expression measured after 16 hrs by SYBR staining based RT-qPCR analysis
[22] = Tmax in ICR mouse at 15 mg/kg, po by LC-MS/MS analysis; format: ADME, organism-based; details: in vivo
Mus musculus [23] = test: as §1, with “TNFalpha” for “CXCL5”; format: functional, organism-based
[24] = target: Mitogen-activated protein kinase kinase kinase 14 (Mus musculus) (UniProt Q9WUL6); test: Inhibition of NIK in NIK adenovirus infected C57BL/6 mouse primary hepatocytes assessed as reduction in TNFalpha mRNA expression measured after 16 hrs by SYBR staining based RT-qPCR analysis
Hepatocyte = test: Down regulation of NIK expression in NIK/p100 adenoviruses infected C57BL/6 mouse primary hepatocytes at 1 to 10 uM measured after 16 hrs by Western blot analysis; format: functional, cell-based
[25] = target: T1, Mitogen-activated protein kinase kinase kinase 14; test: Binding affinity to wild-type human partial length NIK (L318 to P947 residues) expressed in mammalian expression system by Kinomescan method
[26] = Half life in ICR mouse at 15 mg/kg, po by LC-MS/MS analysis; format: ADME, organism-based; details: in vivo
Mus musculus [27] = test: as §1, with “CCL2” for “CXCL5”; format: functional, organism-based
[28] = Oral bioavailability in ICR mouse; format: ADME, organism-based; details: in vivo

IC50 [1]: 720 nM
Structure (SMILES): CC(C)(O)C#Cc1cccc(-c2c[nH]c3cnc(N)nc23)c1

IC50 [1]: 2480 nM
Structure (SMILES): CN1CCC(O)(C#Cc2cc(-n3ccc4ccc(N)nc43)ccn2)C1=O (centres undefined)

IC50 [1]: 10900 nM
Structure (SMILES): CC(O)(C#Cc1cccc(-c2c[nH]c3cnc(N)nc23)c1F)c1nccs1 (centres undefined)

Cmax [2]: 3040 ng/mL | AUC(0-t) [3]: 348 ng·h/mL | AUC(0-t) [4]: 891 ng·h/mL | bioavailability [5]: 13% | Vd [6]: 26 L/kg | inhibition [8]: Dose-dependent effect | Tmax [10]: 4.8 min | half-life [12]: 3.28 h | Stability [13]: Stable | inhibition [14]: Dose-dependent effect | IC50 [1]: 9.1 nM | Cmax [16]: 510 ng/mL | inhibition [17]: Dose-dependent effect | inhibition [18]: Dose-dependent effect | clearance [19]: 92.4 mL/min/kg | inhibition [21]: Dose-dependent effect | Tmax [22]: 0.3 h | inhibition [24]: Dose-dependent effect | Kd [25]: 4.9 nM | half-life [26]: 12 h
Structure (SMILES): C[C@@](O)(C#Cc1ccc(F)c(-c2c[nH]c3cnc(N)nc23)c1)c1nccs1
Activity (Mus musculus [7]): Active | Activity (Mus musculus [9]): Active | Activity (Mus musculus [11]): Active | Activity (Mus musculus [15]): Active | Activity (Mus musculus [20]): Active | Activity (Mus musculus [23]): Active | Activity (Hepatocyte): inactive | Activity (Mus musculus [27]): Active

IC50 [1]: > 10000 nM
Structure (SMILES): CC(O)(C#Cc1cc(Cl)cc(-c2c[nH]c3cnc(N)nc23)c1)c1nccs1 (centres undefined)

IC50 [1]: 2230 nM
Structure (SMILES): C[C@](O)(C#Cc1ccc(F)c(-c2c[nH]c3cnc(N)nc23)c1)c1nccs1

IC50 [1]: 11700 nM
Structure (SMILES): Cc1ccc(-n2ccc3cnc(N)nc32)cc1C#CC(C)(O)c1nccs1 (centres undefined)

IC50 [1]: 216 nM
Structure (SMILES): COc1ccc(C#CC(C)(O)c2nccs2)cc1-n1ccc2cnc(N)nc21 (centres undefined)

IC50 [1]: 87.3 nM
Structure (SMILES): CC(O)(C#Cc1cc(-n2ccc3cnc(N)nc32)c(F)cn1)c1nccs1 (centres undefined)

IC50 [1]: 190 nM
Structure (SMILES): CCc1nc(N)nc2c1ccn2-c1ccnc(C#CC2(O)CCN(C)C2=O)c1 (centres undefined)

Stability [13]: Stable | IC50 [1]: 85.5 nM
Structure (SMILES): CC(O)(C#Cc1ccc(F)c(-c2c[nH]c3cnc(N)nc23)c1)c1nccs1 (centres undefined)

IC50 [1]: 335 nM
Structure (SMILES): Cc1ccc(C#CC(C)(O)c2nccs2)cc1-n1ccc2cnc(N)nc21 (centres undefined)

IC50 [1]: 410 nM
Structure (SMILES): CN1CCC(O)(C#Cc2cccc(-c3c[nH]c4cnc(N)nc34)c2)C1=O (centres undefined)

IC50 [1]: > 10000 nM
Structure (SMILES): CNc1ccc(-n2ccc3cnc(N)nc32)cc1C#CC(C)(O)c1nccs1 (centres undefined)

Stability [13]: Unstable | IC50 [1]: 22.4 nM
Structure (SMILES): CC(O)(C#Cc1cc(-n2ccc3cnc(N)nc32)ccn1)c1nccs1 (centres undefined)

IC50 [1]: > 10000 nM
Structure (SMILES): Nc1ncc2ccn(-c3ccnc(C#CC4(O)CCNCC4)c3)c2n1

IC50 [1]: 120 nM
Structure (SMILES): Cc1cc(C(C)(O)C#Cc2cc(-n3ccc4cnc(N)nc43)ccn2)no1 (centres undefined)

IC50 [1]: 215 nM
Structure (SMILES): CC(O)(C#Cc1ccc(F)c(-n2ccc3cnc(N)nc32)c1)c1nccs1 (centres undefined)

bioavailability [28]: 7% | Stability [13]: Stable | IC50 [1]: 5.9 nM
Structure (SMILES): CN1CCC(O)(C#Cc2ccc(F)c(-c3c[nH]c4cnc(N)nc34)c2)C1=O (centres undefined)

IC50 [1]: 85.2 nM
Structure (SMILES): Cc1nc(N)nc2c1ccn2-c1ccnc(C#CC2(O)CCN(C)C2=O)c1 (centres undefined)

IC50 [1]: > 10000 nM
Structure (SMILES): CC(O)(C#Cc1cccc(-c2c[nH]c3cnc(N)nc23)c1)C(=O)N1CCCC1 (centres undefined)

IC50 [1]: > 10000 nM
Structure (SMILES): CN(C)C(=O)C(C)(O)C#Cc1cccc(-c2c[nH]c3cnc(N)nc23)c1 (centres undefined)

IC50 [1]: 303 nM
Structure (SMILES): CC(O)(C#Cc1cccc(-n2ccc3cnc(N)nc32)c1)c1nccs1 (centres undefined)

IC50 [1]: 3840 nM
Structure (SMILES): CC(O)(C#Cc1ccc(-n2ccc3cnc(N)nc32)cc1)c1nccs1 (centres undefined)

IC50 [1]: > 10000 nM
Structure (SMILES): COc1cccc(C(C)(O)C#Cc2cccc(-c3c[nH]c4cnc(N)nc34)c2)n1 (centres undefined)

IC50 [1]: 388 nM
Structure (SMILES): Nc1ncc2ccn(-c3ccnc(C#CC4(O)CCC4)c3)c2n1

IC50 [1]: 2030 nM
Structure (SMILES): CC(O)(C#Cc1cccc(-c2c[nH]c3cnc(N)nc23)c1)C1CCCCC1 (centres undefined)

IC50 [1]: 1570 nM
Structure (SMILES): Nc1ncc2ccn(-c3ccnc(C#CC4(O)CCCCC4)c3)c2n1
